# Experimental data taken from the supplement of paper PMC10307832.
# Columns and labels:
# Assay in all cases: relative viability (nuclei count vs DMSO), 5 days (fraction); higher = more cells survive
# Entinostat + AZD7762 = compound: Nc1ccccc1NC(=O)c1ccc(CNC(=O)OCc2cccnc2)cc1 [Entinostat] + NC(=O)Nc1cc(-c2cccc(F)c2)sc1C(=O)N[C@H]1CCCNC1 [AZD7762] (partner 0.2 µM)
# Summary of the method: (§1)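 Cells from lung cancer lines were seeded into 1536-well plates and, one day later, dosed by pin tool. Treatments were either a single drug or a fixed dose of an anchor drug with five library-drug doses (not always all listed) in √10 steps. After 5 days, nuclei were stained in a one-step fixation (final 0.05% Triton X-100, 1% formaldehyde, 1 ug/ml Hoechst) and counted on 4× images, and relative viability is the treated-to-vehicle nuclei ratio, as the median of duplicate plates.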
# Entinostat + Palbociclib = compound: Nc1ccccc1NC(=O)c1ccc(CNC(=O)OCc2cccnc2)cc1 [Entinostat] + CC(=O)c1c(C)c2cnc(Nc3ccc(N4CCNCC4)cn3)nc2n(C2CCCC2)c1=O [Palbociclib] (partner 0.5 µM)
# Summary of the method: as §1
# [1] = compound: C1COCCN1C2=NC(=NC3=C2OC4=C3C=CC=N4)C5=CC(=CC=C5)NC(=O)C6=CN=C(C=C6)N + CS(=O)(=O)N1CCN(Cc2cc3nc(-c4cccc5[nH]ncc45)nc(N4CCOCC4)c3s2)CC1 [Pictilisib] (partner 1 µM)
# Summary of the method: as §1
# Entinostat + Trametinib = compound: Nc1ccccc1NC(=O)c1ccc(CNC(=O)OCc2cccnc2)cc1 [Entinostat] + CC(=O)Nc1cccc(-n2c(=O)n(C3CC3)c(=O)c3c(Nc4ccc(I)cc4F)n(C)c(=O)c(C)c32)c1 [Trametinib] (partner 0.02 µM)
# Summary of the method: as §1
Cell Line,relative viability (Entinostat + AZD7762; first compound 0.02 µM),relative viability (Entinostat + AZD7762; first compound 0.06325 µM),relative viability (Entinostat + AZD7762; first compound 0.2 µM),relative viability (Entinostat + AZD7762; first compound 0.6325 µM),relative viability (Entinostat + AZD7762; first compound 2 µM),relative viability (Entinostat + Palbociclib; first compound 0.02 µM),relative viability (Entinostat + Palbociclib; first compound 0.06325 µM),relative viability (Entinostat + Palbociclib; first compound 0.2 µM),relative viability (Entinostat + Palbociclib; first compound 0.6325 µM),relative viability (Entinostat + Palbociclib; first compound 2 µM),relative viability ([1]; first compound 0.02 µM),relative viability ([1]; first compound 0.06325 µM),relative viability ([1]; first compound 0.2 µM),relative viability ([1]; first compound 0.6325 µM),relative viability ([1]; first compound 2 µM),relative viability (Entinostat + Trametinib; first compound 0.02 µM),relative viability (Entinostat + Trametinib; first compound 0.06325 µM),relative viability (Entinostat + Trametinib; first compound 0.2 µM),relative viability (Entinostat + Trametinib; first compound 0.6325 µM),relative viability (Entinostat + Trametinib; first compound 2 µM)
NCI-H1395,0.39,0.386,0.395,0.373,0.356,0.602,0.773,0.802,0.603,0.523,0.699,0.604,0.569,0.587,0.57,1.08,1.09,0.977,0.79,0.699
NCI-H1437,1.12,0.947,0.781,0.396,0.369,0.236,0.182,0.204,0.178,0.122,0.357,0.483,0.41,0.362,0.337,0.406,0.31,0.276,0.276,0.221
NCI-H1651,0.452,0.48,0.377,0.394,0.245,0.549,0.535,0.617,0.533,0.45,0.621,0.608,0.68,0.567,0.31,0.931,0.844,0.844,0.745,0.606
NCI-H1666,1.07,0.918,0.812,0.835,0.519,0.672,0.684,0.697,0.65,0.565,0.466,0.38,0.404,0.311,0.41,0.817,0.883,0.763,0.611,0.572
NCI-H1734,0.5,0.476,0.364,0.259,0.244,0.385,0.375,0.402,0.347,0.256,0.466,0.494,0.429,0.443,0.355,0.707,0.711,0.759,0.6,0.477
NCI-H1755,0.406,0.486,0.493,0.405,0.355,0.439,0.454,0.446,0.407,0.342,0.481,0.494,0.377,0.405,0.357,0.721,0.751,0.605,0.565,0.44
NCI-H1792,0.731,0.747,0.465,0.236,0.153,0.709,0.745,0.723,0.626,0.523,0.26,0.27,0.258,0.17,0.288,0.479,0.431,0.366,0.442,0.155
NCI-H1793,0.508,0.643,0.302,0.23,0.302,0.329,0.321,0.263,0.248,0.189,0.312,0.279,0.398,0.408,0.361,0.465,0.387,0.31,0.304,0.292
NCI-H1915,0.713,0.694,0.716,0.526,0.286,0.51,0.494,0.43,0.383,0.208,0.924,0.96,0.927,0.898,0.845,0.314,0.311,0.289,0.246,0.229
NCI-H1944,0.413,0.463,0.394,0.259,0.238,0.301,0.286,0.234,0.223,0.176,0.358,0.365,0.356,0.37,0.316,0.387,0.43,0.333,0.265,0.232
NCI-H1975,0.628,0.612,0.669,0.476,0.395,0.488,0.378,0.346,0.181,0.132,0.276,0.309,0.278,0.273,0.257,0.373,0.32,0.313,0.223,0.169
NCI-H1993,0.777,0.741,0.69,0.468,0.366,0.653,0.667,0.725,0.642,0.273,0.76,0.708,0.861,0.791,0.85,0.484,0.572,0.504,0.475,0.492
NCI-H2085,0.965,0.93,0.909,0.683,0.692,0.438,0.441,0.43,0.4,0.421,0.441,0.474,0.464,0.446,0.421,0.552,0.765,0.508,0.499,0.408
NCI-H2087,1.22,0.975,1.04,1.03,0.355,0.252,0.209,0.174,0.0887,0.0971,0.881,0.848,0.876,0.807,0.642,0.189,0.193,0.169,0.136,0.141
NCI-H2126,0.936,1.03,1.01,0.737,0.495,0.316,0.317,0.351,0.321,0.334,0.455,0.524,0.486,0.521,0.442,0.592,0.506,0.525,0.347,0.312
NCI-H2170,0.876,0.878,0.825,0.602,0.193,0.387,0.362,0.314,0.252,0.216,0.328,0.316,0.299,0.299,0.304,0.972,0.888,0.752,0.579,0.402
